According to patent US20170340588A1, “MODULATION OF REGULATORY T CELLS VIA G-COUPLED PROTEIN RECEPTOR 43” (President and Fellows of Harvard College, priority 2013, published 2017):
Read-outs that look alike come from different tables or passages of the source.

Tests used:
[1] = mouse, in vivo
Method: At the conclusion of the experiment mice were removed from isolators and processed immediately.
Cecal or small intestinal contents were collected immediately after animals were sacrificed and flash frozen in N2(1). Samples were mashed in 500 μl HPLC grade water and centrifuged at >14,000 x g, the resulting supernatant was then passed through a 0.22 μm syringe filter to remove bacterial cells and debris. Samples we then acidified with 1/10 volume of 0.01M H2SO4, heated and passed through a condenser to isolate volatile compounds within a sample. SCFA analyses were performed using an Agilent 1200 series HPLC and a Poroshell 120 SB C18 column (2.7 μm, 3.0×100mm) with guard column (Agilent Technologies). Sulfuric acid (0.01M) was used as the mobile phase. SCFA concentrations were weight corrected.

[2] = Stability of SCFA mix in mouse water bottle over time; type: physicochemical; conditions: for SCFA mix in mouse water bottle over time, Day 1 / SCFA mix in mouse water bottle over time, Day 4 / SCFA mix in mouse water bottle over time, Day 7 / SCFA mix in mouse water bottle over time, Day 10 / SCFA mix in mouse water bottle over time, Day 14 / SCFA mix in mouse water bottle over time, Day 90: input 200 mM
Method: Mice were treated for 21 days with either sodium acetate (150 mM), sodium propionate (150 mM), sodium butyrate (100 mM) or a SCFA mix (67.5 mM acetate, 40 mM Butyrate, 25.9 mM Propionate) in the drinking water. In in vivo drinking water treatment experiments, control mice received pH and sodium-matched water. At the conclusion of the experiment mice were removed from isolators and processed immediately.

colonic Treg (cTreg) = experiment: Antibiotic (vancomycin) treatment of SPF mice with or without SCFA; type: in vivo; conditions: SPF mice, vancomycin alone in drinking water
Method: Science 341: 1645 (2013). […] The crude cell suspension was loaded onto a 40%/90% Percoll (GE Healthcare) gradient and centrifuged at 720 x g for 25 min at room temperature with acceleration and brake turned off. LP lymphocytes were collected from the 40%/90% interface. Intracellular staining of the transcription factors Foxp3, Helios and T-bet was performed using the Foxp3 Fix/Perm Buffer Set (Biolegend). For detection of intracellular cytokines, cells were first stimulated for 4 h with 50 ng/ml PMA and 1 μg/ml ionomycin in the presence of Brefeldin A (All obtained from Sigma), followed by staining for surface markers. Cells were then fixed and permeabilized using the Foxp3 Fix/Perm Buffer Set (Biolegend) and stained for intracellular cytokines. The following antibodies were used: […] All antibodies were obtained from Biolegend unless otherwise noted. Flow cytometry was performed using LSRII and data were analyzed with FlowJo software (TreeStar, Inc.). Cell sorting was performed using a […] at the Dana-Farber Cancer Institute Flow Cytometry Core.

CC(=O)O [Acetate, acetic acid]
SCFA levels, SPF SI [1]: 15.19 ± 9.2 µmol/g
SCFA levels, SPF SI + P [1]: 15.46 ± 3.69 µmol/g
SCFA levels, cecal contents, ASF [1]: 28.69 ± 8.32 µmol/g
SCFA levels, cecal contents, GF [1]: 2.82 ± 0.534 µmol/g
SCFA levels, cecal contents, GF + A [1]: 16.18 ± 4.65 µmol/g
SCFA levels, cecal contents, GF + Mic [1]: 20.83 ± 0.47 µmol/g
SCFA levels, cecal contents, SPF [1]: 40.66 ± 5.86 µmol/g
SCFA levels, cecal contents, SPF + A [1]: 53.95 ± 1.91 µmol/g
SCFA levels, cecal contents, SPF + Vanco [1]: 8.63 ± 1.73 µmol/g
SCFA mix in mouse water bottle over time, Input (Day 0) [2]: 200 mM
SCFA mix in mouse water bottle over time, Day 1 [2]: 195 mM
SCFA mix in mouse water bottle over time, Day 4 [2]: 220.1 mM
SCFA mix in mouse water bottle over time, Day 7 [2]: 192.2 mM
SCFA mix in mouse water bottle over time, Day 10 [2]: 196.3 mM
SCFA mix in mouse water bottle over time, Day 14 [2]: 202.5 mM
SCFA mix in mouse water bottle over time, Day 90 [2]: 56.1 mM

CCCC(=O)O [Butyrate, butyric acid]
SCFA levels, cecal contents, SPF + B ([1]; BALB/c, 2 weeks): 29.78 ± 6.202 µmol/g
SCFA levels, cecal contents, GF + B ([1]; BALB/c, 21 days): 11.46 ± 1.46 µmol/g
SCFA levels, cecal contents, GF + Mic ([1]; BALB/c, 21 days): 20.6 ± 3.96 µmol/g
SCFA levels, SPF SI [1]: 7.183 ± 2.39 µmol/g
SCFA levels, cecal contents, ASF [1]: 16.89 ± 1.46 µmol/g
SCFA levels, cecal contents, GF [1]: 2.13 ± 0.598 µmol/g
SCFA levels, cecal contents, SPF [1]: 18.52 ± 4.92 µmol/g
SCFA levels, SPF SI + P ([1]; 2 weeks): 6.45 ± 2.11 µmol/g
SCFA levels, cecal contents, SPF + Vanco ([1]; 4 weeks): 1.04 ± 0.903 µmol/g
SCFA mix in mouse water bottle over time, Input (Day 0) [2]: 200 mM
SCFA mix in mouse water bottle over time, Day 1 [2]: 203.09 mM
SCFA mix in mouse water bottle over time, Day 4 [2]: 202.85 mM
SCFA mix in mouse water bottle over time, Day 7 [2]: 202.27 mM
SCFA mix in mouse water bottle over time, Day 10 [2]: 202.69 mM
SCFA mix in mouse water bottle over time, Day 14 [2]: 202.19 mM
SCFA mix in mouse water bottle over time, Day 90 [2]: 38 mM

CN[C@H](CC(C)C)C(=O)N[C@H]1C(=O)N[C@@H](CC(N)=O)C(=O)N[C@H]2C(=O)N[C@H]3C(=O)N[C@H](C(=O)N[C@H](C(=O)O)c4cc(O)cc(O)c4-c4cc3ccc4O)[C@H](O)c3ccc(c(Cl)c3)Oc3cc2cc(c3O[C@@H]2O[C@H](CO)[C@@H](O)[C@H](O)[C@H]2O[C@H]2C[C@](C)(N)[C@H](O)[C@H](C)O2)Oc2ccc(cc2Cl)[C@H]1O [vancomycin, reference compound]
cTreg level (colonic Treg (cTreg)): reduced
